In patent US20090110671A1, “AGENT FOR ENHANCHING THE PRODUCTION OF COLLAGEN AND IT'S USE” (priority 2005, published 2009):

Legend:
[1] = test system: flabby skin or skin wrinkles/finely-wrinkles; assay: Experiment 6: self-evaluation of lotions with AMP and/or CoQ10 on flabby skin or skin wrinkles/finely-wrinkles, three months; assay type: in vivo, human; conditions: lotion, 3 months
Text: Eleven women as volunteers, who had been suffering from skin wrinkles/finely-wrinkles or flabby skin, were allowed to wash their faces with any of the lotions having compositions in Table 5 three times a day for four months and then allowed to evaluate themselves about their face-skin conditions by comparing with those before use of the lotions. […] The influence of a combination use of α,α-trehalose or saccharide derivatives thereof, sodium hyaluronate and/or chondroitin sulfate, and adenosine monophosphate (may be abbreviated as “AMP”, hereinafter) and/or coenzyme Q10 (may be abbreviated as “CoQ10”, hereinafter) on the skin was examined by the following experiment. One hundred parts by weight of respective lotions were prepared by adding to fresh preparations of the same lotion with the basic composition ratio as used in Experiment 5 sodium hyaluronate, chondroitin sulfate, hydrous crystalline α,α-trehalose, a cosmetic grade specimen commercialized by Hayashibara Biochemical Laboratories Inc., Okayama, Japan, and “[…]”, a product name of a syrup having saccharide derivatives of α,α-trehalose commercialized by Hayashibara Biochemical Laboratories Inc., Okayama, Japan, AMP, and CoQ10 according to the combinations and compositions as in Table 6 below. The amounts of added saccharides are represented based on a dry solid basis. The syrup containing saccharide derivatives of α,α-trehalose was added to each lotion to give respective composition ratios as in Table 6. Any of the lotions was allowed to be used every day by 11 females who had been suffering from flabby skin or skin wrinkles/finely-wrinkles, three times a day for three months, and the results were evaluated on flabby skin or skin wrinkles/finely-wrinkles by the method similarly as in Experiment 5.

NHDF cells = assay: Experiment 2: collagen sedimented over cell surface and released in supernatant of NHDF cells, α,α-trehalose or maltose with AA-2G; assay type: cell-based, human; conditions: relative to AA-2G = 100
Method: Influence of α,α-trehalose and maltose on collagen production using NHDF cells was examined by the following experiment: Test solutions were prepared by dissolving either AA-2G; hydrous crystalline α,α-trehalose, a reagent grade specimen, commercialized by Hayashibara Biochemical Laboratories Inc., Okayama, Japan; or hydrous crystalline maltose, a reagent grade specimen, commercialized by Hayashibara Biochemical Laboratories Inc., Okayama; Japan, in […] The methods for culturing NHDF cells and quantifying the collagen-production level of the cells were conducted similarly as in Experiment 1. The collagen level in each culture supernatant of NHDF cells was determined in such a manner of collecting the culture supernatant and quantifying the collagen released in the supernatant by using “Sircol Collagen Quantification Kit”. As a control, D-MEM medium containing 50 μM AA-2G was used. These control and test solutions were respectively experimented using three wells, followed by calculating a mean value for collagen-production levels in the wells. The results are in Table 2 where the values are expressed with relative values for either or both of the levels of collagen, that had sedimented over the cell surfaces or released in the supernatants, in terms of their collagen-production levels of NHDF cells, which had been cultured in D-MEM medium containing 50 μM AA-2G, being regarded as 100.

[2] = saccharide one part by weight + AMP 0.1 + CoQ10 0.1
[3] = saccharide one part by weight + AMP 0.2
[4] = saccharide one part by weight + CoQ10 0.2
[5] = saccharide one part by weight + sodium hyaluronate 0.1 + chondroitin sulfate 0.1 + AMP 0.1 + CoQ10 0.1
[6] = saccharide one part by weight + sodium hyaluronate 0.1 + chondroitin sulfate 0.1 + AMP 0.2
[7] = saccharide one part by weight + sodium hyaluronate 0.1 + chondroitin sulfate 0.1 + CoQ10 0.2
[8] = saccharide one part by weight + sodium hyaluronate 0.1 + chondroitin sulfate 0.1
[9] = saccharide one part by weight alone, 3 times a day
[10] = saccharide 0.2 mg/ml + 50 μM AA-2G
[11] = saccharide 0.6 mg/ml + 50 μM AA-2G
[12] = saccharide 1.7 mg/ml + 50 μM AA-2G
[13] = saccharide 5.0 mg/ml + 50 μM AA-2G
[14] = saccharide 15.0 mg/ml + 50 μM AA-2G

## OC[C@H]1O[C@H](O[C@H]2O[C@H](CO)[C@@H](O)[C@H](O)[C@H]2O)[C@H](O)[C@@H](O)[C@@H]1O [α,α-trehalose]
[1]; [2]
  Evaluation A (remarkably efficacious): 2 number of volunteers
  Evaluation B (efficacious): 3 number of volunteers
  Evaluation C (slightly efficacious): 5 number of volunteers
  Evaluation D (inefficacious): 1 number of volunteers
[1]; [3]
  Evaluation A (remarkably efficacious): 2 number of volunteers
  Evaluation B (efficacious): 2 number of volunteers
  Evaluation C (slightly efficacious): 6 number of volunteers
  Evaluation D (inefficacious): 1 number of volunteers
[1]; [4]
  Evaluation A (remarkably efficacious): 1 number of volunteers
  Evaluation B (efficacious): 3 number of volunteers
  Evaluation C (slightly efficacious): 6 number of volunteers
  Evaluation D (inefficacious): 1 number of volunteers
[1]; [5]
  Evaluation A (remarkably efficacious): 5 number of volunteers
  Evaluation B (efficacious): 5 number of volunteers
  Evaluation C (slightly efficacious): 1 number of volunteers
  Evaluation D (inefficacious): 0 number of volunteers
[1]; [6]
  Evaluation A (remarkably efficacious): 3 number of volunteers
  Evaluation B (efficacious): 4 number of volunteers
  Evaluation C (slightly efficacious): 4 number of volunteers
  Evaluation D (inefficacious): 0 number of volunteers
[1]; [7]
  Evaluation A (remarkably efficacious): 4 number of volunteers
  Evaluation B (efficacious): 3 number of volunteers
  Evaluation C (slightly efficacious): 4 number of volunteers
  Evaluation D (inefficacious): 0 number of volunteers
[1]; [8]
  Evaluation A (remarkably efficacious): 2 number of volunteers
  Evaluation B (efficacious): 4 number of volunteers
  Evaluation C (slightly efficacious): 4 number of volunteers
  Evaluation D (inefficacious): 1 number of volunteers
[1]; [9]
  Evaluation A (remarkably efficacious): 1 number of volunteers
  Evaluation B (efficacious): 2 number of volunteers
  Evaluation C (slightly efficacious): 6 number of volunteers
  Evaluation D (inefficacious): 2 number of volunteers
NHDF cells; [10]
  Collagen-production level, In supernatant: 103
  Collagen-production level, Total: 101
NHDF cells; [11]
  Collagen-production level, In supernatant: 203
  Collagen-production level, Total: 131
NHDF cells; [12]
  Collagen-production level, In supernatant: 250
  Collagen-production level, Total: 154
NHDF cells; [13]
  Collagen-production level, In supernatant: 232
  Collagen-production level, Total: 169
NHDF cells; [14]
  Collagen-production level, In supernatant: 1058
  Collagen-production level, Total: 335
